The values that follow are results of earlier work, collected in PMC11866498 (Cell Reports Medicine, 2025).

The structures appear in SMILES notation.

The conditions of series [1]: ref Previous studies.
The conditions of series [2]: ref Previous studies. The source holds these as a separate data set.

As to `C[C@H]1COC2=C1C(=O)C(=O)c1c2ccc2c1CCCC2(C)C` [CTS, cryptotanshinone], the water solubility entry in series [1] was “inadequate”. Further, in series [2], the in vivo stability result was “inadequate”.
